Each structure is given as a SMILES string.

One assay concerns Striga hermonthica seeds. The settings on record: at 10^-8 M concentrations; cited from earlier work.
For the next assay, the system named is Seeds of O. cumana. The assay is described as follows: Germination triggering of parasitic weed seeds. The settings on record: AB01 compared with 5-deoxystrigol; 48 hours post-treatment, triplicate. In kind it is in vivo. As to the method:
Seeds of O. cumana were primed by incubation on glass fiber filters in darkness at room temperature for 3 days. Specified concentrations of AB01 or 5-dS were applied and seeds were monitored at 48 hours post-treatment. Germination was evident by appearance of haustoria. Experiments were performed in triplicate.

In assay [1] the test system is Alfalfa seedlings. The assay is described as follows: Drought tolerance in alfalfa seedlings. In kind it is in vivo. The settings on record: 1 mg/mL; irrigation stopped; approximately 7 days post-treatment. The procedure: Alfalfa was grown from seeds for 14 days. Seedlings were treated with 1 mg/mL AB01 or mock treated. Irrigation was stopped after treatment and seedlings were monitored for symptoms of water limitation stress.

The next assay concerns MAX1 A. thaliana mutants. The assay is described as follows: Complementation of Arabidopsis mutant deficient in strigolactone biosynthesis. In kind it is in vivo, Arabidopsis thaliana. The settings on record: 1 uM as an irrigation supplement vs mock treatment. The procedure:
To further validate the bioactivity of AB01 we tested whether the compound could complement mutants of the model plant Arabidopsis thaliana that are deficient in strigolactone biosynthesis. […] We grew MAX1 A. thaliana under standard conditions and added 1 uM AB01 as an irrigation supplement, or a mock treatment. […] Thus, the synthetic AB01 is sufficiently similar to strigolactone to both to trigger Striga germination as well as substitute for the natural compound in a model plant.

A further assay relates to Striga. As to the kind of experiment: Field trial Siaya County, Kenya: reduction of Striga. In kind it is in vivo. The settings on record: 1 gram per acre sprayed 1 week prior to planting. As to the method:
(§1) Field trial was performed from August 2013 to January 2014 in Siaya County, Kenya. AB01 treated plots were sprayed with a 1 gram per acre dose 1 week prior to planting. Treatment was accomplished by resuspending solid AB01 in 1 mL of acetone, and diluting in 4000 L of water. 3 replicate treated and untreated plots (100 m2 each) were performed. […] (C) The biomass of Striga from each plot was collected and measured after harvest.

The subject of assay [2] is Dekalb 67-86 RR corn seedlings. The assay is described as follows: Acute water stress in corn seedlings (leaf rolling score). In kind it is in vivo. The settings on record: 40 mL of 0.1 mM or 1.0 mM; 6th day without irrigation; greenhouse. The procedure:
Corn seedlings were scored as unstressed, moderately water stressed and severely water stressed as measured by visual inspection of leaf rolling, a response of corn to water stress. Dekalb 67-86 RR corn seeds were planted and then irrigated through 7 days after emergence in a greenhouse setting. Seedlings were then treated with 40 mL of water, 0.1 mM AB01 or 1.0 mM AB01 and irrigation ceased. On the 6th day without irrigation, seedlings were scored for water stress. Seedlings with open leaves were scored as unstressed; seedlings with partial leaf rolling were scored as moderately stressed; seedlings with completely rolled leaves were scored as severely stressed.

Assay [3] has as its system grain crop in Striga infested plots. The assay is described as follows: Field trial Siaya County, Kenya: grain yield. In kind it is in vivo. The settings on record: 1 gram per acre sprayed 1 week prior to planting. As to the method: We have field trials underway outside of Kisumu, Kenya to test the efficacy of this treatment on maize yields in Striga infested fields.
as §1

A further assay concerns Seeds of Striga asiatica. As to the kind of experiment: Triggering Striga seed germination. In kind it is in vivo. The settings on record: for bioactivity in Striga germination assay: FIG. 1. As to the method:
(B) Bioactivity of synthetic SL. Seeds of Striga asiatica were exposed to SL (right) or a mock treatment (left). […] (C) Synthetic biological pathway for the production of SL in yeast, consisting of enzymes of plant and microbial origin. We tested the ability of AB01 to trigger the germination of Striga seeds. Seeds of Striga asiatica were conditioned by incubation in the dark at 30 degrees for 7 days, and dilutions of the AB01 material in water were applied. We observed that concentrations of 1 nanogram per liter and greater were able to trigger germination of approximately 30% of the seeds, which is similar to published efficiencies and activity for plant-derived strigolactone (FIG. 1A-B).

Assay [4] relates to Alfalfa seedlings. As to the kind of experiment: Salinity tolerance in alfalfa seedlings. In kind it is in vivo. The settings on record: 1 mg/mL; irrigated every 48 hours with 100 mL water containing 35 g/L NaCl; after 5 days. The procedure:
Alfalfa was grown from seeds for 14 days. Seedlings were treated with 1 mg/mL AB01 or mock treated. After treatment, plants were irrigated with 100 mL water containing 35 g/L dissolved salt (NaCl). Irrigation was performed every 48 hours and plants monitored for symptoms of salinity stress.

For another assay, the system named is Wheat. The assay is described as follows: Drought tolerance in greenhouse wheat. In kind it is in vivo. The settings on record: 1 mg in 100 mL water; irrigation stopped; 7 days post treatment. As to the method: Wheat was grown in greenhouse conditions from seed for 6 weeks with adequate irrigation. Plants were treated with 1 mg of AB01 resuspended in acetone and diluted in 100 mL water, or mock treated as a control. Irrigation was stopped and plants monitored for symptoms of drought stress.

The subject of assay [5] is corn, Dekalb hybrid 68-05. As to the kind of experiment: Corn field trial, Hays County, Tex., not irrigated. In kind it is in vivo. As to the method:
Field trial was performed from April to July 2014 in Hays County, Tex. Dekalb hybrid 68-05 was planted at a density of 25,000 plants per acre (30″ rows with 8″ spacing). The field was top-dressed with 80 lbs/ac nitrogen. The field was not irrigated. AB01 treated plots were sprayed with a 2 gram per acre dose at the tasseling (VT) stage. Spraying was accomplished by resuspending solid AB01 in 0.5 mL of acetone, and diluting in water for a spray volume of 1 gallon per 500 square feet. Experiments were performed in triplicate The fraction of fertilized ears was measured by visual inspection of the ear silk at the R2-R3 stage. Unfertilized silks that appear yellow/green, while fertilized silks appear reddish brown. Completely unfertilized ears have silks that are completely yellow/green, fertilized ears appear brown, while ears with an incomplete degree of fertilized silks have a mixed population of silks. […] Ears were visually inspected at harvest to monitor kernel set (the number of fully formed kernels in the mature ear). […] Ears volume was measured in the field at the R3 stage to calculate ear volume. The length and circumference of each ear was measure, and volume was calculated by treating the ear as a cylinder. Approximately 100 ears from each plot were measured. […] After harvest, ears were shelled and kernels counted and weighed to quantitate the ‘thousand kernel weight’ (TKW), or average mass of kernels in the trial. AB01 treated plots yielded kernels averaging 30% higher mass than control plots. Ears from control and treated plots were harvested, shelled, and moisture tested to quantitate dry mass. Control plots averaged 120 bushels per acre, while AB01 treated plots averaged 143 bushels per acre, a 19% increase. Grain yield is calculated at 15% moisture, a standard measure of harvest output.

A further assay deals with Tomato seedlings. The assay is described as follows: Salinity tolerance in tomato seedlings. In kind it is in vivo. The settings on record: 10 mg/mL; 250 mL water with 29.2 g/L NaCl 24 hours after treatment; 6 hours after salt irrigation. The procedure:
Tomato seedlings were treated with 10 mg/mL AB01 or mock treated. 24 hours after treatment, they were irrigated with 250 mL water containing 29.2 g/L salt (NaCl).

Take `CC1=CC(OC=C2C(=O)OC3C4=C(CC23)C(O)CCC4(C)C)OC1=O` (stereo not drawn) [ent-strigol]: in the assay on Striga hermonthica seeds, the “activity in germination studies of Striga hermonthica seeds” value is given as 22%.
On to `CC1=C[C@H](O/C=C2/C(=O)O[C@@H]3C4=C(CCCC4(C)C)C[C@H]23)OC1=O` [Formula 5-dS, 5-deoxystrigol, reference compound], for which, in the assay with Seeds of O. cumana, the “germination triggering efficiency (appearance of haustoria)” value is “Significant differences in germination triggering efficiency”.
Take `CC1=CC(O/C=C2\C(=O)O[C@]3(C)CCC4C(C)(C)CCC[C@]4(C)[C@@H]23)OC1=O` (stereo partly shown) [AB01]: the “appearance of seedlings under water limitation” value in the assay on Alfalfa seedlings [1] was “appeared robust”. Moreover, in the assay with MAX1 A. thaliana mutants, the “effect on phenotype of strigolactone-deficient mutant” value is on record as “visible impact on the phenotype of the mutant”. Moreover, the “count of emergent Striga per plot” value with Striga is “few parasites”. Further, the “Striga emergence and Striga-related stress during season” value in the assay on Striga (3 replicate plots of 100 m2) was “few signs of Striga-related stress and parasite emergence”. Further, the “fraction of unstressed / severely water stressed seedlings” value in [2] was “decreased the fraction of severely stressed seedlings while increasing the fraction of unstressed seedlings in a dose-dependent manner”. For the same compound, the “germination triggering efficiency (appearance of haustoria)” value in the assay with Seeds of O. cumana was “Significant differences in germination triggering efficiency”. Moreover, in assay [3], the “increase of grain yield compared to untreated plots” value is listed as 25%. The “bioactivity in Striga germination assay” value in the assay with Seeds of Striga asiatica is “graded dose-response behavior”; in the assay on Seeds of Striga asiatica (listed as Synthetic SL), “potent bioactivity”; in the assay on Seeds of Striga asiatica (listed as synthetic SL), “displayed bioactivity”; with Seeds of Striga asiatica (listed as synthetically produced SL), “effective at germinating seeds of Striga asiatica”. Further, the “concentrations able to trigger germination” value with Seeds of Striga asiatica (Striga asiatica seeds conditioned 7 days, dilutions in water) is recorded as at least 1 nanogram per liter. Further, in the assay on Seeds of Striga asiatica (Striga asiatica seeds conditioned in the dark at 30 degrees for 7 days, dilutions in water, 1 nanogram per liter and greater), the “seeds triggered to germinate” value is “approximately 30%”. Also, the “vigor under salinity stress” value in the assay on Alfalfa seedlings [4] is on record as “significantly higher vigor”. Besides, in the assay with Wheat, the “symptoms of drought stress (wilting)” value is given as “appeared vigorous”. For the same compound, the “increase of harvest yield over control plots” value in assay [5] (2 gram per acre spray at VT) was determined as 19%. Also, in assay [5] (2 gram per acre spray at VT, R3 stage, approximately 100 ears per plot, vs mock treated), the ear volume result is recorded as “significantly higher volumes”. For the same compound, the “kernel set at harvest” value in [5] (2 gram per acre spray at VT, vs mock treated) was “more complete kernel set and few signs of kernel abortion”. Also, the “fraction of fertilized ears (visual inspection of ear silk)” value in assay [5] (2 gram per acre spray at tasseling (VT), R2-R3 stage, vs mock treated control) was “decreased the fraction of unfertilized ears while increasing the fraction of fertilized ears”. Besides, the “symptoms of salinity shock (wilting)” value with Tomato seedlings was “appeared unstressed”.

These data come from patent US10577358B2, “Strigolactone formulations and uses thereof” (SOUND AGRICULTURE COMPANY, priority 2013, dated 2020).
